Key:
Format in all cases: in vivo
[1] = system: ivyleaf morningglory (Ipomoea hederacea, IPOHE); experiment: Pre-emerge test, greenhouse herbicide activity screening; conditions: phytotoxicity rating 0-100, 14 days after application
Description: (§1) A standard greenhouse herbicide activity screening system was used to evaluate the herbicidal efficacy and crop safety of these test compounds. Seven broadleaf weed species including redroot pigweed (Amaranthus retroflexus, AMARE, velvetleaf (Abutilon theophrasti, ABUTH), sicklepod (Cassia obtusifolia, CASOB), ivyleaf morningglory (Ipomoea hederacea, IPOHE), lambsquarters (Chenopodium album, CHEAL), common ragweed (Ambrosia artemisizfolia L., AMBEL), and cocklebur (Xanthium strumarium, XANST) were used as test species. Four grass weed species including green foxtail (Setaria viridis, SETVI), barnyardgrass (Echinochloa crus-galli, ECHCG), johnsongrass (Sorghum halepense, SORHA), and large crabgrass (Digitaria sanguinalis, DIGSA) were also used. In addition, three crop species, field corn (Zea mays L., var. Dekalb 535, CORN), soybean (Glycine max L., var. Pella 86, SOY), and is upland rice (Oryza sp., var. Tebonnet, RICE) were included.
(§2) All plants were grown in 10 cm square plastic pots which were filled with a sandy loam soil mix. For pre-emerge tests, seeds were planted one day prior to application of the test compounds. For post-emerge tests, seeds were planted 8-21 days prior to the test to allow emergence and good foliage development prior to application of the test substances. At the time of the post-emerge application, plants of all species were usually at the 2-3 leaf stage of development.
(§3) All test compounds Were dissolved in acetone and applied to the test units in a volume of 187 l /ha. Test materials were applied at rates ranging from 15 g ai/ha to 1000 g ai/ha using a track sprayer equipped with a TJ8001E even flow flat fan spray nozzle. Plants were arranged on a shelf so that the top of the canopy (post-emerge) or top of the soil surface (pre-emerge) was 40-45 cm below the nozzle. Pressurized air was used to force the test solution through the nozzle as it was mechanically advanced (via electrically driven chain drive) over the top of all test plants/pots. This application simulates a typical commercial field herbicide application.
(§4) In the post-emerge test, a commercial non-ionic surfactant was also included (0.25% v/v) to enhance wetting of the leaf surfaces of target plants. Immediately after application, test units of the pre-emerge applications were watered at the soil surface to incorporate the test materials. Subsequently, these test units were bottom-watered. Post-emerge test units were always bottom-watered.
(§5) At 14 days after application of the test materials, phytotoxicity ratings were recorded. A rating scale of 0-100 was used as previously described in Research Methods in Weed Science, 2nd edition, B. Truelove, Ed., Southern Weed Science Society, Auburn University, Auburn, Ala. 1977. Briefly, “0” corresponds to no damage and “100” corresponds to complete death of all plants in the test unit. This scale was used both to determine efficacy against weed species and damage to crop species. Herbicide activity data for various compounds of this invention, which are shown by compound No. in Tables 1-8, are shown in Tables 11 and 12.

[2] = system: velvetleaf (Abutilon theophrasti, ABUTH); experiment: as above; conditions: phytotoxicity rating 0-100, 14 days after application
Description: as §1, §2, §3, §4, §5

[3] = system: large crabgrass (Digitaria sanguinalis, DIGSA); experiment: as above; conditions: phytotoxicity rating 0-100, 14 days after application
Description: as §1, §2, §3, §4, §5

[4] = system: sicklepod (Cassia obtusifolia, CASOB); experiment: as above; conditions: phytotoxicity rating 0-100, 14 days after application
Description: as §1, §2, §3, §4, §5

[5] = system: barnyardgrass (Echinochloa crus-galli, ECHCG); experiment: as above; conditions: phytotoxicity rating 0-100, 14 days after application
Description: as §1, §2, §3, §4, §5

[6] = system: green foxtail (Setaria viridis, SETVI); experiment: as above; conditions: phytotoxicity rating 0-100, 14 days after application
Description: as §1, §2, §3, §4, §5

[7] = system: lambsquarters (Chenopodium album, CHEAL); experiment: as above; conditions: phytotoxicity rating 0-100, 14 days after application
Description: as §1, §2, §3, §4, §5

[8] = system: field corn (Zea mays L., var. Dekalb 535, CORN); experiment: Pre-emerge test, crop safety; conditions: crop damage rating 0-100, 14 days after application
In short: (§6)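 Compounds in acetone were track-sprayed at 15-1000 g ai/ha (187 l/ha) on sandy loam pots: pre-emerge one day after seeding, post-emerge at 2-3 leaf stage with 0.25% v/v non-ionic surfactant. Phytotoxicity was rated 14 days later on a 0 (no damage) to 100 (complete death) scale.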

[9] = system: upland rice (Oryza sp., var. Tebonnet, RICE); experiment: Pre-emerge test, crop safety; conditions: crop damage rating 0-100, 14 days after application
In short: as §6

[10] = system: redroot pigweed (Amaranthus retroflexus, AMARE); experiment: Pre-emerge test, greenhouse herbicide activity screening; conditions: phytotoxicity rating 0-100, 14 days after application
In short: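 Compounds in acetone were track-sprayed at 187 l/ha, 15–1000 g ai/ha, onto sandy loam pots. Pre-emerge seeds were sown one day before spraying, with surface watering afterwards. Post-emerge plants were at the 2–3 leaf stage and sprayed with 0.25% v/v non-ionic surfactant. Injury was rated 0–100 at 14 days.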

[11] = system: field corn (Zea mays L., var. Dekalb 535, CORN); experiment: Post-emerge test, crop safety; conditions: post-emerge, 14 days after application, rating scale 0-100
In short: (§7)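 Sandy loam pots; pre-emerge: sown 1 d pre-spray, surface-watered after, then bottom-watered. Post-emerge: sown 8–21 d before, 2–3 leaf stage, + 0.25% v/v NIS, bottom-watered. Acetone, 187 l/ha track spray, 15–1000 g ai/ha. 0–100 injury score, day 14.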

[12] = system: upland rice (Oryza sp., var. Tebonnet, RICE); experiment: Post-emerge test, crop safety; conditions: post-emerge, 14 days after application, rating scale 0-100
In short: as §7

[13] = system: ivyleaf morningglory (Ipomoea hederacea, IPOHE); experiment: Post-emerge test, greenhouse herbicide activity screening; conditions: post-emerge, 14 days after application, rating scale 0-100
Description: as §1, §2, §3, §4, §5

[14] = system: velvetleaf (Abutilon theophrasti, ABUTH); experiment: as above; conditions: post-emerge, 14 days after application, rating scale 0-100
Description: as §1, §2, §3, §4, §5

[15] = system: large crabgrass (Digitaria sanguinalis, DIGSA); experiment: as above; conditions: post-emerge, 14 days after application, rating scale 0-100
Description: as §1, §2, §3, §4, §5

[16] = system: sicklepod (Cassia obtusifolia, CASOB); experiment: as above; conditions: post-emerge, 14 days after application, rating scale 0-100
Description: as §1, §2, §3, §4, §5

[17] = system: redroot pigweed (Amaranthus retroflexus, AMARE); experiment: as above; conditions: post-emerge, 14 days after application
Description: as §1, §2, §3, §4, §5

[18] = system: barnyardgrass (Echinochloa crus-galli, ECHCG); experiment: as above; conditions: post-emerge, 14 days after application, rating scale 0-100
Description: as §1, §2, §3, §4, §5

[19] = system: green foxtail (Setaria viridis, SETVI); experiment: as above; conditions: post-emerge, 14 days after application, rating scale 0-100
Description: as §1, §2, §3, §4, §5

[20] = system: lambsquarters (Chenopodium album, CHEAL); experiment: as above; conditions: post-emerge, 14 days after application, rating scale 0-100
Description: as §1, §2, §3, §4, §5

[21] = 63 g ai/ha, rating scale 0-100 (0 no damage, 100 complete death)
[22] = 250 g ai/ha, rating scale 0-100

Structure (SMILES)	Pre-emerge Herbicidal Activity IPOHE ([1]; 63 g ai/ha)	Pre-emerge Herbicidal Activity IPOHE ([1]; 250 g ai/ha)	Pre-emerge Herbicidal Activity ABUTH ([2]; 63 g ai/ha)	Pre-emerge Herbicidal Activity ABUTH ([2]; 250 g ai/ha)	Pre-emerge Herbicidal Activity DIGSA ([3]; 63 g ai/ha)	Pre-emerge Herbicidal Activity DIGSA ([3]; 250 g ai/ha)	Pre-emerge Herbicidal Activity CASOB ([4]; 63 g ai/ha)	Pre-emerge Herbicidal Activity CASOB ([4]; 250 g ai/ha)	Pre-emerge Herbicidal Activity ECHCG ([5]; 63 g ai/ha)	Pre-emerge Herbicidal Activity ECHCG ([5]; 250 g ai/ha)	Pre-emerge Herbicidal Activity SETVI ([6]; 63 g ai/ha)	Pre-emerge Herbicidal Activity SETVI ([6]; 250 g ai/ha)	Pre-emerge Herbicidal Activity CHEAL ([7]; 63 g ai/ha)	Pre-emerge Herbicidal Activity CHEAL ([7]; 250 g ai/ha)	Pre-emerge Herbicidal Activity CORN ([8]; 63 g ai/ha)	Pre-emerge Herbicidal Activity CORN ([8]; 250 g ai/ha)	Pre-emerge Herbicidal Activity RICE ([9]; 63 g ai/ha)	Pre-emerge Herbicidal Activity RICE ([9]; 250 g ai/ha)	Pre-emerge Herbicidal Activity AMARE ([10]; 63 g ai/ha)	Pre-emerge Herbicidal Activity AMARE ([10]; 250 g ai/ha)	further results
COc1c(Cl)cc(F)c(-n2c(=O)cc(C(F)(F)F)n(C)c2=O)c1NC(=O)OCc1ccc2c(c1)OCO2 [4-41]	100	100	100	100	100	100	100	100	80	90	100	100	100	100	15	65	40	80	100	100	phytotoxicity rating CORN (crop damage) ([11]; 63 g ai/ha): 75; phytotoxicity rating CORN (crop damage) ([11]; 250 g ai/ha): 90; phytotoxicity rating RICE (crop damage) ([12]; 63 g ai/ha): 50; phytotoxicity rating RICE (crop damage) ([12]; 250 g ai/ha): 85; phytotoxicity rating IPOHE ([13]; 63 g ai/ha): 100; phytotoxicity rating IPOHE ([13]; 250 g ai/ha): 100; phytotoxicity rating ABUTH ([14]; 63 g ai/ha): 100; phytotoxicity rating ABUTH ([14]; 250 g ai/ha): 100; phytotoxicity rating DIGSA ([15]; 63 g ai/ha): 90; phytotoxicity rating DIGSA ([15]; 250 g ai/ha): 100; phytotoxicity rating CASOB ([16]; 63 g ai/ha): 100; phytotoxicity rating CASOB ([16]; 250 g ai/ha): 100; phytotoxicity rating AMARE [17, 21]: 100; phytotoxicity rating AMARE [17, 22]: 100; phytotoxicity rating ECHCG ([18]; 63 g ai/ha): 80; phytotoxicity rating ECHCG ([18]; 250 g ai/ha): 90; phytotoxicity rating SETVI ([19]; 63 g ai/ha): 95; phytotoxicity rating SETVI ([19]; 250 g ai/ha): 95; phytotoxicity rating CHEAL ([20]; 63 g ai/ha): 100; phytotoxicity rating CHEAL ([20]; 250 g ai/ha): 100
COc1c(Cl)cc(F)c(-n2c(=O)cc(C(F)(F)F)n(C)c2=O)c1NC(=O)OCc1ccc(C(C)C)cc1 [4-42]	0	40	60	100	10	60	0	100	0	40	30	100	40	100	0	0	0	0	30	90	phytotoxicity rating CORN (crop damage) ([11]; 63 g ai/ha): 0; phytotoxicity rating CORN (crop damage) ([11]; 250 g ai/ha): 0; phytotoxicity rating RICE (crop damage) ([12]; 63 g ai/ha): 0; phytotoxicity rating RICE (crop damage) ([12]; 250 g ai/ha): 0; phytotoxicity rating IPOHE ([13]; 63 g ai/ha): 40; phytotoxicity rating IPOHE ([13]; 250 g ai/ha): 30; phytotoxicity rating ABUTH ([14]; 63 g ai/ha): 100; phytotoxicity rating ABUTH ([14]; 250 g ai/ha): 100; phytotoxicity rating DIGSA ([15]; 63 g ai/ha): 0; phytotoxicity rating DIGSA ([15]; 250 g ai/ha): 0; phytotoxicity rating CASOB ([16]; 63 g ai/ha): 0; phytotoxicity rating CASOB ([16]; 250 g ai/ha): 0; phytotoxicity rating AMARE [17, 21]: 75; phytotoxicity rating AMARE [17, 22]: 100; phytotoxicity rating ECHCG ([18]; 63 g ai/ha): 0; phytotoxicity rating ECHCG ([18]; 250 g ai/ha): 10; phytotoxicity rating SETVI ([19]; 63 g ai/ha): 0; phytotoxicity rating SETVI ([19]; 250 g ai/ha): 0; phytotoxicity rating CHEAL ([20]; 63 g ai/ha): 80; phytotoxicity rating CHEAL ([20]; 250 g ai/ha): 90

From US6355799B1, “Substituted benzene compounds, process for their preparation, and herbicidal and defoliant compositions containing them” (ISK Americas Incorporated, priority 1997, dated 2002)
